The results in this text go back to ChEMBL document CHEMBL4431337, “Synthesis and bioactivities of novel pyrazole oxime derivatives containing a 1,2,3-thiadiazole moiety” (Bioorg Med Chem Lett, 2016).

Molecules are shown by their SMILES. pIC50: −log10 of the molar value.

The test system of experiment [1] is Tetranychus cinnabarinus. Put plainly: Acaricidal activity against Tetranychus cinnabarinus assessed as mortality at 200 ug/ml pre-incubated with mite-infested Sieva bean plants for 3 secs and measured 48 hrs post dose. Type of experiment: functional.
Experiment [2] deals with Tetranychus cinnabarinus. In words: Acaricidal activity against Tetranychus cinnabarinus assessed as mortality at 50 ug/ml pre-incubated with mite-infested Sieva bean plants for 3 secs and measured 48 hrs post dose. Type of experiment: functional.
Experiment [3] concerns Tetranychus cinnabarinus. In words: Acaricidal activity against Tetranychus cinnabarinus assessed as mortality at 100 ug/ml pre-incubated with mite-infested Sieva bean plants for 3 secs and measured 48 hrs post dose. Type of experiment: functional.
Experiment [4] concerns Plutella xylostella. In words: Insecticidal activity against Plutella xylostella assessed as mortality at 100 ug/ml pre-incubated with cabbage leaves for 2 to 3 secs and measured 48 hrs post dose by leaf disc assay. Type of experiment: functional. The settings on record: foliar.
The subject of experiment [5] is Plutella xylostella. Put plainly: Insecticidal activity against Plutella xylostella assessed as mortality at 200 ug/ml pre-incubated with cabbage leaves for 2 to 3 secs and measured 48 hrs post dose by leaf disc assay. Type of experiment: functional. The settings on record: foliar.
In experiment [6] the test system is Plutella xylostella. In words: Insecticidal activity against Plutella xylostella assessed as mortality at 50 ug/ml pre-incubated with cabbage leaves for 2 to 3 secs and measured 48 hrs post dose by leaf disc assay. Type of experiment: functional. The conditions noted are these: foliar.
The test system of a further experiment is Huh-7. In words: Cytotoxicity against human HuH7 cells assessed as inhibition of cell growth after 48 hrs by MTT assay. Type of experiment: functional, cell-based. The conditions noted are these: Huh-7, 48 h. In general terms: Tetrazolium assays rely on reduction of a dye to a coloured formazan, in cell work by metabolically active cells.
Another experiment deals with SGC-7901. Put plainly: Cytotoxicity against human SGC7901 cells assessed as inhibition of cell growth after 48 hrs by MTT assay. The conditions noted are these: SGC-7901, 48 h. Type of experiment: functional, cell-based.
A further experiment has as its system PANC-1. In words: Cytotoxicity against human PANC1 cells assessed as inhibition of cell growth after 48 hrs by MTT assay. Type of experiment: functional, cell-based. The settings on record: PANC-1, 48 h.
The test system of experiment [7] is Aphis craccivora. In words: Insecticidal activity against Aphis craccivora assessed as mortality at 200 ug/ml pre-incubated with horsebean shoot with aphids for 2 secs and measured 48 hrs post dose by foliar application method. Type of experiment: functional.
The subject of a further experiment is HCT-116. In words: Cytotoxicity against human HCT116 cells assessed as inhibition of cell growth after 48 hrs by MTT assay. The settings on record: HCT-116, 48 h. Type of experiment: functional, cell-based.
Experiment [8] deals with Aphis craccivora. In words: Insecticidal activity against Aphis craccivora assessed as mortality at 100 ug/ml pre-incubated with horsebean shoot with aphids for 2 secs and measured 48 hrs post dose by foliar application method. Type of experiment: functional.
Experiment [9] concerns Aphis craccivora. Put plainly: Insecticidal activity against Aphis craccivora assessed as mortality at 50 ug/ml pre-incubated with horsebean shoot with aphids for 2 secs and measured 48 hrs post dose by foliar application method. Type of experiment: functional.

Take `Cc1nn(C)c(Oc2ccccc2)c1/C=N/OCc1ccc(C(=O)OC(C)(C)C)cc1` [FENPYROXYMATE]: in the experiment on Tetranychus cinnabarinus [1], the mortality (as a rule, the percentage killed) at 200 µg/mL is 100%. Also, in the experiment on Tetranychus cinnabarinus [2], the mortality at 50 µg/mL was determined as 100%. The mortality at 100 µg/mL with Tetranychus cinnabarinus [3] was determined as 100%.

Consider `FC(F)(F)c1ccc(OCCCOc2c(Cl)cc(OCC=C(Cl)Cl)cc2Cl)nc1` [PYRIDALYL], for which the mortality at 100 µg/mL in the experiment with Plutella xylostella [4] is 100%. The mortality at 200 µg/mL in the experiment with Plutella xylostella [5] was 100%. Moreover, the mortality at 50 µg/mL in the experiment on Plutella xylostella [6] is 100%.

For `Cc1nnsc1CO/N=C/c1c(C)nn(C)c1Oc1ccc(Br)cc1`, the pIC50 (as a rule, the negative decadic logarithm of the IC50, by convention in mol/L) with Huh-7 is 4.93; in the experiment with SGC-7901 it was 4.82; with PANC-1, 4.89; in the experiment on HCT-116, 5.14. Further, the mortality at 100 µg/mL in the experiment on Plutella xylostella [4] is 80%. The mortality at 200 µg/mL was 100% in the experiment with Plutella xylostella [5], 0% with Tetranychus cinnabarinus [1] and 20% with Aphis craccivora [7]. Moreover, in the experiment with Plutella xylostella [6], the mortality at 50 µg/mL was found to be 43%.

Consider `Cc1cccc(Oc2c(/C=N/OCc3snnc3C)c(C)nn2C)c1`, for which the negative-log IC50 (pIC50) with Huh-7 is less than 4.30; with SGC-7901, 4.89; with PANC-1, less than 4.30; in the experiment on HCT-116, 4.85. Further, the mortality at 100 µg/mL in the experiment on Plutella xylostella [4] amounted to 0%; with Aphis craccivora [8] it was 70%. Further, the mortality at 200 µg/mL with Plutella xylostella [5] stood at 84%; in the experiment on Tetranychus cinnabarinus [1], 0%; in the experiment with Aphis craccivora [7], 90%. Besides, the mortality at 50 µg/mL in the experiment on Aphis craccivora [9] came to 38%.

As to `Cc1nnsc1CO/N=C/c1c(C)nn(C)c1Oc1cccc(F)c1`, the negative logarithm of the IC50 (pIC50) in the experiment with Huh-7, with SGC-7901, with PANC-1 and with HCT-116 was less than 4.30 each time. The results for the mortality at 100 µg/mL with Plutella xylostella [4], in the experiment with Aphis craccivora [8] and in the experiment with Tetranychus cinnabarinus [3] were 0%, 80% and 50%, respectively. The mortality at 200 µg/mL with Plutella xylostella [5] came out at 71%; in the experiment with Tetranychus cinnabarinus [1] it was 80%; in the experiment on Aphis craccivora [7], 98%. Further, the values for the mortality at 50 µg/mL in the experiment on Tetranychus cinnabarinus [2] and with Aphis craccivora [9] were 0% and 52%, respectively.

With `Cc1nnsc1CO/N=C/c1c(C)nn(C)c1Oc1ccc(F)cc1`, the pIC50 in the experiment with Huh-7 was less than 4.30; in the experiment with SGC-7901 it was less than 4.30; in the experiment on PANC-1 it was less than 4.30; in the experiment on HCT-116 it was 4.52. Besides, the figures for the mortality at 100 µg/mL in the experiment with Plutella xylostella [4] and in the experiment on Aphis craccivora [8] were 0% and 90%, respectively. In addition, the figures for the mortality at 200 µg/mL with Plutella xylostella [5], in the experiment with Tetranychus cinnabarinus [1] and in the experiment on Aphis craccivora [7] were 100%, 0% and 99%, respectively. In addition, in the experiment on Aphis craccivora [9], the mortality at 50 µg/mL is 60%.

With `Cc1nnsc1CO/N=C/c1c(C)nn(C)c1Oc1ccc(I)cc1`, the pIC50 in the experiment with Huh-7 is less than 4.30; in the experiment with SGC-7901, less than 4.30; in the experiment with PANC-1, less than 4.30; in the experiment on HCT-116, 4.36. For the same compound, the results for the mortality at 100 µg/mL in the experiment with Plutella xylostella [4], in the experiment with Aphis craccivora [8] and in the experiment on Tetranychus cinnabarinus [3] were 62%, 70% and 60%, respectively. Besides, the mortality at 200 µg/mL came out at 64% with Plutella xylostella [5], 90% in the experiment on Tetranychus cinnabarinus [1] and 95% with Aphis craccivora [7]. The mortality at 50 µg/mL turned out to be 60% in the experiment on Plutella xylostella [6], 0% with Tetranychus cinnabarinus [2] and 41% with Aphis craccivora [9].

As for `Cc1nnsc1CO/N=C/c1c(C)nn(C)c1Cl`, the pIC50 in the experiment with Huh-7 is less than 4.30; in the experiment with SGC-7901, less than 4.30; in the experiment with PANC-1, 4.58; with HCT-116, less than 4.30. The values for the mortality at 100 µg/mL in the experiment on Plutella xylostella [4] and in the experiment on Aphis craccivora [8] were 0% and 85%, respectively. In addition, the mortality at 200 µg/mL was 100% in the experiment on Plutella xylostella [5], 0% in the experiment on Tetranychus cinnabarinus [1] and 100% with Aphis craccivora [7]. Moreover, the mortality at 50 µg/mL in the experiment on Aphis craccivora [9] was 61%.
